Earlier results in PMC2637266, “Quantification of gamma-secretase modulation differentiates inhibitor compound selectivity between two substrates Notch and amyloid precursor protein” (Molecular Brain, 2008).

Key:
[1] = test system: γ-secretase substrates APP, ErbB-4, and Notch; set-up: method as in PMID 12777371; details: cited from earlier work
plasma Aβ40 = test system: plasma Aβ40; set-up: method as in PMID 18090456, PMID 16505324, PMID 18695053; details: AD patients; cited from earlier work

| SMILES | generation of intracellular domains (ICDs) of APP, ErbB-4, and Notch [1] | plasma Aβ40 (plasma Aβ40) | tolerability (plasma Aβ40) | cleavage of γ-secretase substrates at the middle of transmembrane domain [1] |
| --- | --- | --- | --- | --- |
| CC(C)Cc1ccc(C(C)C(=O)O)cc1 (stereo not shown) [ibuprofen] | without affecting the generation | – | – | – |
| CC(C)[C@H](O)C(=O)N[C@@H](C)C(=O)N[C@@H]1C(=O)N(C)CCc2ccccc21.O.O [LY450139 dihydrate] | – | reduces plasma Aβ40 | well tolerated | – |
| CSc1ccc(/C=C2/C(C)=C(CC(=O)O)c3cc(F)ccc32)cc1 [sulindac sulphide] | without affecting the generation | – | – | specifically block the cleavage |
| COc1ccc2c(c1)c(CC(=O)O)c(C)n2C(=O)c1ccc(Cl)cc1 [indomethacin] | without affecting the generation | – | – | specifically block the cleavage |
